How the values were obtained:
[1] = biological target: JAK2 (Homo sapiens (Human), UniProt O60674); test: Jak biochemical HTRF assay, JAK2; settings: HTRF biochemical assay, recombinant GST-tagged catalytic domain; read-out: JAK2 IC50
Experimental: Jak Biochemical HTRF Assay Protocol
The ability of compounds to inhibit the activity of JAK1, JAK2, JAK3, and Tyk2 was measured using a recombinant purified GST-tagged catalytic domain for each enzyme (Invitrogen JAK1 #M4290, JAK2 #M4290, JAK3 #M4290, Tyk2 #M4290) in an HTRF format biochemical assay. […] The basic assay protocol is as follows: First, 250 nL of diluted compounds in DMSO were dispensed into the wells of a dry 384-well Black plate (Greiner #781076) using a Labcyte Echo 555 acoustic dispenser. Subsequent reagent additions employed an Agilent Bravo. […] After equilibration, 2 μL of 10×ATP in 1× assay buffer was added to initiate the kinase reaction and the plates were shaken and then incubated at room temperature for 120 minutes. […] Plates were shaken and centrifuged and then incubated 60 minutes at room temperature and then read on a Perkin Elmer Envision (λex=337 nm, λem=665 and 615 nm, TRF delay time=20 μs). HTRF signal=10,000*665 nm reading/615 nm reading. After normalization to untreated controls, the percent inhibition of the HTRF signal at each compound concentration was calculated. The plot of percent inhibition versus the log of compound concentration was fit with a 4-parameter dose response equation to calculate IC50 values.
Final Reaction Conditions were:
Examples of the instant invention were evaluated in JAK1 and JAK2 in vitro binding assays.

[2] = biological target: JAK1 (Homo sapiens (Human), UniProt P23458); test: Jak biochemical HTRF assay, JAK1; settings: HTRF biochemical assay, recombinant GST-tagged catalytic domain; read-out: JAK1 IC50
Chain of JAK1 (P23458 875-1153): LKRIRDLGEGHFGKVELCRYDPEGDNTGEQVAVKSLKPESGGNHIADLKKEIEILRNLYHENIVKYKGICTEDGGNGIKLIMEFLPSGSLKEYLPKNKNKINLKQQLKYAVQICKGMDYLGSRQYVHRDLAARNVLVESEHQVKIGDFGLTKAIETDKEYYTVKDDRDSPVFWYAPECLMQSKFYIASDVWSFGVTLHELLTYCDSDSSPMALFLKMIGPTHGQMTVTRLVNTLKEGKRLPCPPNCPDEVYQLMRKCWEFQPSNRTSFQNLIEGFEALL

Chain of JAK2 (O60674 849-1124): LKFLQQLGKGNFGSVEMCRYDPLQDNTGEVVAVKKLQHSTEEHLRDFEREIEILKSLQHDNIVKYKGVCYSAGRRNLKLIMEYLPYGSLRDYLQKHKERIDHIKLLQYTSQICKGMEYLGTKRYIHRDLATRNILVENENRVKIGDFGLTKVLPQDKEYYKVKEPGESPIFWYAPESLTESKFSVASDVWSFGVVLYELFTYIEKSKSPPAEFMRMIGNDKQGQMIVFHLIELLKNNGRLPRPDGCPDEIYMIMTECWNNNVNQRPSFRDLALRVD

SMILES | IC50 [1] [nM] | IC50 [2] [nM]
CC(C)OC(=O)c1ccc2cc(Nc3nn([C@H]4CCCC[C@@H]4C#N)c4cc[nH]c(=O)c34)ccc2n1 [Example 15-16, isopropyl 6-((1-((1S,2S)-2-cyanocyclohexyl)-4-oxo-4,5-dihydro-1H-pyrazolo[4,3-c]pyridin-3-yl)amino)quinoline-2-carboxylate] | 3.8 | 0.26
CC(C)C(c1ccc(Nc2nn([C@H]3CCCC[C@@H]3C#N)c3cc[nH]c(=O)c23)cc1)n1cc(C(=O)OC(C)(C)C)nn1 (single isomer, unassigned) [Example 15-58, tert-butyl 1-{(1R or 1S)-1-[4-({1-[(1S,2S)-2-cyanocyclohexyl]-4-oxo-4,5-dihydro-1H-pyrazolo[4,3-c]pyridin-3-yl}amino)phenyl]-2-methylpropyl}-1H-1,2,3-triazole-4-carboxylate] | 3.1 | 1.8
N#C[C@@H]1CCCC[C@H]1n1nc(Nc2ccnc(F)c2)c2c(=O)[nH]ccc21 [Example 3-1, (1R,2R)-2-{3-[(2-Fluoropyridin-4-yl)amino]-4-oxo-4,5-dihydro-1H-pyrazolo[4,3-c]pyridin-1-yl}cyclohexanecarbonitrile] | 97 | 18
CC(O)(CO)c1cc(Nc2nn([C@H]3CCCC[C@@H]3C#N)c3cc[nH]c(=O)c23)ccc1S(C)(=O)=O (stereo partly drawn) [Example 3-87, (1S,2S)-2-(3-{[3-(1,2-dihydroxy-1-methylethyl)-4-(methylsulfonyl)phenyl]amino}-4-oxo-4,5-dihydro-1H-pyrazolo[4,3-c]pyridin-1-yl)cyclohexanecarbonitrile] | 0.95 | 0.25
N#C[C@H]1CCCC[C@@H]1n1nc(Nc2ccc3c(c2)CN(CC(F)(F)F)S3(=O)=O)c2c(=O)[nH]ccc21 [Example 3-58, (1S,2S)-2-(3-{[1,1-dioxido-2-(2,2,2-trifluoroethyl)-2,3-dihydro-1,2-benzisothiazol-5-yl]amino}-4-oxo-4,5-dihydro-1H-pyrazolo[4,3-c]pyridin-1-yl)cyclohexanecarbonitrile] | 0.58 | 0.05
N#C[C@H]1CCCC[C@@H]1n1nc(Nc2cccc([C@@H](N)C(F)(F)F)c2)c2c(=O)[nH]ccc21 [Example 7-2, (1S,2S)-2-[3-({3-[(1R)-1-amino-2,2,2-trifluoroethyl]phenyl}amino)-4-oxo-4,5-dihydro-1H-pyrazolo[4,3-c]pyridin-1-yl]cyclohexanecarbonitrile] | 2.2 | 0.26
N#C[C@H]1CCCC[C@@H]1n1nc(Nc2ccc3c(c2)CC2(CCOCC2)S3(=O)=O)c2c(=O)[nH]ccc21 [Example 21-3, (1S,2S)-2-{3-[(1,1-dioxido-2′,3′,5′,6′-tetrahydro-3H-spiro[1-benzothiophene-2,4′-pyran]-5-yl)amino]-4-oxo-4,5-dihydro-1H-pyrazolo[4,3-c]pyridin-1-yl}cyclohexanecarbonitrile] | 0.18 | 0.069
N#C[C@H]1CCCC[C@@H]1n1nc(Nc2ccc3c(c2)CN(CC2CCCC2)C3)c2c(=O)[nH]ccc21 [Example 3-162, (1S,2S)-2-(3-{[2-(cyclopentylmethyl)-2,3-dihydro-1H-isoindol-5-yl]amino}-4-oxo-4,5-dihydro-1H-pyrazolo[4,3-c]pyridin-1-yl)cyclohexanecarbonitrile] | 0.92 | 0.33
COCCN1Cc2cc(Nc3nn([C@H]4CCCC[C@@H]4C#N)c4cc[nH]c(=O)c34)ccc2S1(=O)=O [Example 3-83, (1S,2S)-2-(3-{[2-(2-methoxyethyl)-1,1-dioxido-2,3-dihydro-1,2-benzisothiazol-5-yl]amino}-4-oxo-4,5-dihydro-1H-pyrazolo[4,3-c]pyridin-1-yl)cyclohexanecarbonitrile] | 0.55 | 0.066
N#C[C@H]1C[C@H](N2CCC2)CC[C@@H]1n1nc(Nc2ccc(OC(F)(F)F)cc2)c2c(=O)[nH]ccc21 [Example 5-23, (1S,2S,5R)-5-(azetidin-1-yl)-2-(4-oxo-3-((4-(trifluoromethoxy)phenyl)amino)-4,5-dihydro-1H-pyrazolo[4,3-c]pyridin-1-yl)cyclohexanecarbonitrile] | 31 | 0.88
CS(=O)(=O)c1ccc(Nc2nn([C@H]3CCCC[C@@H]3C#N)c3cc[nH]c(=O)c23)cc1CN [Example 6-4, (1S,2S)-2-(3-((3-(aminomethyl)-4-(methylsulfonyl)phenyl)amino)-4-oxo-4,5-dihydro-1H-pyrazolo[4,3-c]pyridin-1-yl)cyclohexanecarbonitrile] | 2.9 | 1
CC(C)N1Cc2ccc(Nc3nn([C@H]4CCCC[C@@H]4C#N)c4cc[nH]c(=O)c34)cc2C1 [Example 3-74, (1S,2S)-2-(3-{[2-(1-methylethyl)-2,3-dihydro-1H-isoindol-5-yl]amino}-4-oxo-4,5-dihydro-1H-pyrazolo[4,3-c]pyridin-1-yl)cyclohexanecarbonitrile] | 0.29 | 0.14
N#C[C@H]1CCCC[C@@H]1n1nc(Nc2ccc(S(=O)(=O)NCc3ccccc3)cc2)c2c(=O)[nH]ccc21 [Example 3-19, N-benzyl-4-({1-[(1S,2S)-2-cyanocyclohexyl]-4-oxo-4,5-dihydro-1H-pyrazolo[4,3-c]pyridin-3-yl}amino)benzenesulfonamide] | 1.2 | 0.21
N#C[C@H]1CCCC[C@@H]1n1nc(Nc2cc(F)cc(CN)c2)c2c(=O)[nH]ccc21 [Example 6-3, (1S,2S)-2-(3-((3-(aminomethyl)-5-fluorophenyl)amino)-4-oxo-4,5-dihydro-1H-pyrazolo[4,3-c]pyridin-1-yl)cyclohexanecarbonitrile] | 2.3 | 1.4
N#C[C@H]1CCCC[C@@H]1n1nc(Nc2ccc(S(=O)(=O)NC3CCCCC3)cc2)c2c(=O)[nH]ccc21 [Example 3-22, 4-({1-[(1S,2S)-2-cyanocyclohexyl]-4-oxo-4,5-dihydro-1H-pyrazolo[4,3-c]pyridin-3-yl}amino)-N-cyclohexylbenzenesulfonamide] | 1.2 | 0.4
Cc1cc(Nc2nn([C@H]3CCCC[C@@H]3C#N)c3cc[nH]c(=O)c23)ccc1C(C(C)C)n1ccnn1 (single isomer, unassigned) [Example 15-37, (1S,2S)-2-[3-({3-methyl-4-[(1S or 1R)-2-methyl-1-(1H-1,2,3-triazol-1-yl)propyl]phenyl}amino)-4-oxo-4,5-dihydro-1H-pyrazolo[4,3-c]pyridin-1-yl]cyclohexanecarbonitrile] | 0.25 | 0.066
N#C[C@H]1CCCC[C@@H]1n1nc(Nc2cccc(Cn3nccn3)c2)c2c(=O)[nH]ccc21 [Example 3-28, (1S,2S)-2-(4-oxo-3-{[3-(2H-1,2,3-triazol-2-ylmethyl)phenyl]amino}-4,5-dihydro-1H-pyrazolo[4,3-c]pyridin-1-yl)cyclohexanecarbonitrile] | 0.93 | 1
N#C[C@H]1CCCC[C@@H]1n1nc(Nc2ccc([C@H](N)C(F)(F)F)cc2)c2c(=O)[nH]ccc21 [Example 7-4, (1S,2S)-2-[3-({4-[(1S)-1-amino-2,2,2-trifluoroethyl]phenyl}amino)-4-oxo-4,5-dihydro-1H-pyrazolo[4,3-c]pyridin-1-yl]cyclohexanecarbonitrile] | 0.41 | 0.11
N#C[C@H]1CCCC[C@@H]1n1nc(Nc2ccc3c(c2)CNCC3)c2c(=O)[nH]ccc21 [Example 3-157, (1S,2S)-2-[4-oxo-3-(1,2,3,4-tetrahydroisoquinolin-7-ylamino)-4,5-dihydro-1H-pyrazolo[4,3-c]pyridin-1-yl]cyclohexanecarbonitrile] | 0.88 | 0.45
N#C[C@H]1CCCC[C@@H]1n1nc(Nc2ccc3c(c2)CN(C2CCCCC2)C3=O)c2c(=O)[nH]ccc21 [Example 15-34, (1S,2S)-2-{3-[(2-cyclohexyl-1-oxo-2,3-dihydro-1H-isoindol-5-yl)amino]-4-oxo-4,5-dihydro-1H-pyrazolo[4,3-c]pyridin-1-yl}cyclohexanecarbonitrile] | 0.62 | 0.082
CC(C)CN1Cc2ccc(Nc3nn([C@H]4CCCC[C@@H]4C#N)c4cc[nH]c(=O)c34)cc2C1 [Example 3-75, (1S,2S)-2-(3-{[2-(2-methylpropyl)-2,3-dihydro-1H-isoindol-5-yl]amino}-4-oxo-4,5-dihydro-1H-pyrazolo[4,3-c]pyridin-1-yl)cyclohexanecarbonitrile] | 0.68 | 0.28
N#C[C@H]1CCCC[C@@H]1n1nc(Nc2ccc3c(c2)CNS3(=O)=O)c2c(=O)[nH]ccc21 [Example 3-54, (1S,2S)-2-{3-[(1,1-dioxido-2,3-dihydro-1,2-benzisothiazol-5-yl)amino]-4-oxo-4,5-dihydro-1H-pyrazolo[4,3-c]pyridin-1-yl}cyclohexanecarbonitrile] | 0.62 | 0.051
C[C@H](NC1CCC(n2nc(Nc3ccc(Cl)cc3)c3c(=O)[nH]ccc32)C(C#N)C1)C1CC1 (stereo in doubt) [Example 4-1, (1R,2R,5S)-2-(3-((4-Chlorophenyl)amino)-4-oxo-4,5-dihydro-1H-pyrazolo[4,3-c]pyridin-1-yl)-5-(((S)-1-cyclopropylethyl)amino)cyclohexanecarbonitrile] | 122 | 5.3

— patent US9725445B2, “Cycloalkyl nitrile pyrazolo pyridones as Janus kinase inhibitors” (Merck Sharp & Dohme Corp., priority 2013, dated 2017)
